Molecular target: T1, human KCNQ2 and KCNQ3 (Homo sapiens, UniProt O43525+O43526)
T1 construct: expressed in transfected cells; host or cells: HEK293
Assay: KCNQ 2/3 channel activation, thallium flux FLIPR assay (BTC-AM dye) in HEK293 cells
Assay type: cell-based
Details: for Emax: HEK293, maximum response relative to response of retigabine at 10 μM set at 100%, read-out: Max response; for EC50: HEK293 cells stably expressing human KCNQ2 and KCNQ3, compound incubated 4 minutes, Tl+ flux fluorescence
Method: The following example describes the assay that can be used to identify compounds that activate KCNQ 2/3 channels.
HEK293 cells stably expressing human KCNQ2 and KCNQ3 were seeded in 96-well, black-walled, clear-bottomed, poly-D-lysine coated plates (BD Biosciences, Bedford, Mass.) at a density of 1×10^5 cells per well 24 hours before the assay. On the assay day, BTC-AM dye (Invitrogen, Carlsbad, Calif.) was loaded into the cells by replacing the cell culture medium with 100 μL/well of 4 μM dye in DPBS. Dye loading was allowed to proceed for 2 hours at room temperature and then cells were washed twice in 100 μL/well of assay buffer (in mM: 10 HEPES pH 7.3, 5 glucose, 140 Na-gluconate, 2.5 K-gluconate, 3.6 Ca-gluconate, 2 MgSO4, 0.1 Ouabain) to remove unloaded dye. Cells were incubated in 50 μL of assay buffer before loading onto a FLIPR system (Molecular Devices, Sunnyvale, Calif.). Various concentrations of compounds to be assayed were added to the cells in 50 μL of assay buffer and incubated for 4 minutes. The fluorescence signal was initiated by adding 100 μL of assay buffer containing 6 mM TlNO3 and 10 mM K2SO4. Fluors were excited using the 488-nm line of an argon laser and emission was filtered using a 540±30 nm bandpass filter. Fluorescent signals were recorded for 3 minutes. Responses over baseline values were plotted versus concentrations of test compounds to obtain an EC50 value. The maximum response for each test compound was determined relative to the response produced at 10 μM by retigabine. The maximum response of retigabine at 10 μM was set at 100%.

T1 sequence (O43526 whole entry): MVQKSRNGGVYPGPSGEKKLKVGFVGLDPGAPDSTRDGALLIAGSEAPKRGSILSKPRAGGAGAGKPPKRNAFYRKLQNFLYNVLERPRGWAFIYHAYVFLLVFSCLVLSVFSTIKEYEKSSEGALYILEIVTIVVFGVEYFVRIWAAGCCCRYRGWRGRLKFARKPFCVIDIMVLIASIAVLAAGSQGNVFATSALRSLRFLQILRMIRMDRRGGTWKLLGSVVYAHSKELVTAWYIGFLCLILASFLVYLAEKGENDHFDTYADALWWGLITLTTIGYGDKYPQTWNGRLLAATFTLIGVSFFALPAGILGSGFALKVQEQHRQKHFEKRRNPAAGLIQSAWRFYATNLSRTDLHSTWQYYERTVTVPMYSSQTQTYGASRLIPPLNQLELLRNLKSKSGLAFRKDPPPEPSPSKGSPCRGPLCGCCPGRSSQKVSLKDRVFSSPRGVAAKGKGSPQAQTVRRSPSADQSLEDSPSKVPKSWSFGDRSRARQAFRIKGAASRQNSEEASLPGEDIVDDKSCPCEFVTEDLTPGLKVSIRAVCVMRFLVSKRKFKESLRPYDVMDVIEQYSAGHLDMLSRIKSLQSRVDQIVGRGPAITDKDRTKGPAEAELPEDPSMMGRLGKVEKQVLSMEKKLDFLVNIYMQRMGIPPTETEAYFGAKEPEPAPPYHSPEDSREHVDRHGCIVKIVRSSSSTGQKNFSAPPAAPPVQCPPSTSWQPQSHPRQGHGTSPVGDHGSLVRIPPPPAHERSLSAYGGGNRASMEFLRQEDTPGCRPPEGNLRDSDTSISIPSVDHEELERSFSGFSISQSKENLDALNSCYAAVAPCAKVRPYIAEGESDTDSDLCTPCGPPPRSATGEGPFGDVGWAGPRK
T1 sequence (O43525 whole entry): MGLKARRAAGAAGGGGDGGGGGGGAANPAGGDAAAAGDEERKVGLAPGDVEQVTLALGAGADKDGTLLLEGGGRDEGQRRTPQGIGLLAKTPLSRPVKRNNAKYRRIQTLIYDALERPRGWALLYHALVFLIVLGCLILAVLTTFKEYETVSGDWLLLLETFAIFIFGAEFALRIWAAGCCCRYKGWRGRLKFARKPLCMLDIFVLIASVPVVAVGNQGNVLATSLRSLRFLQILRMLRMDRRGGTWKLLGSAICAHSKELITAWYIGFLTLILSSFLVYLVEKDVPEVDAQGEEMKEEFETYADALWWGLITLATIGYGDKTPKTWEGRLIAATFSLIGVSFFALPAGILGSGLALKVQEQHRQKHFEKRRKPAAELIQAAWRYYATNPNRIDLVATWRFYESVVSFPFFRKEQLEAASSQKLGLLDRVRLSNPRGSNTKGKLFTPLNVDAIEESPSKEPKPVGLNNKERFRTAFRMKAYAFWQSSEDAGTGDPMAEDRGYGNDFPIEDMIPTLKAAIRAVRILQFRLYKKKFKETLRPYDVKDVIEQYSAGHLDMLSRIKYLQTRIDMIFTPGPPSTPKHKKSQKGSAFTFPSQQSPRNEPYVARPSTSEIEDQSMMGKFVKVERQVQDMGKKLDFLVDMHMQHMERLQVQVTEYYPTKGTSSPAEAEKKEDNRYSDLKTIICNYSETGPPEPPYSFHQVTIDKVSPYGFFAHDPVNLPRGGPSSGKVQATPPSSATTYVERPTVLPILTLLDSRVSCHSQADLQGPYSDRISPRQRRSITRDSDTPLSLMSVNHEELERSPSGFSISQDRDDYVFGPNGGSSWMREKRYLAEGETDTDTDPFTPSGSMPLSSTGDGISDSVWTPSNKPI

With Cc1cc2c(=O)n(NC(=O)CC34CC5CC(CC(C5)C3)C4)c(C)nc2s1 [Example 47, 2-(1-adamantyl)-N-(2,6-dimethyl-4-oxothieno[2,3-d]pyrimidin-3(4H)-yl)acetamide] the Emax was 56.7% and the EC50 was 652 nM.

With Cc1sc2nc(C)n(NC(=O)CC34CC5CC(CC(C5)C3)C4)c(=O)c2c1C [Example 49, 2-(1-adamantyl)-N-(2,5,6-trimethyl-4-oxothieno[2,3-d]pyrimidin-3(4H)-yl)acetamide] the Emax was 65.2% and the EC50 was 779 nM.

Work on O=C(CC12CC3CC(CC(C3)C1)C2)Nn1cnc2ccsc2c1=O [Example 26, 2-(1-adamantyl)-N-(4-oxothieno[3,2-d]pyrimidin-3(4H)-yl)acetamide] yielded an Emax of 140% and an EC50 of 2680 nM.

For O=C(CC12CC3CC(CC(C3)C1)C2)Nn1c(-c2ccccc2)nc2ccccc2c1=O [Example 6, 2-(1-adamantyl)-N-(4-oxo-2-phenylquinazolin-3(4H)-yl)acetamide], the Emax was 103% and the EC50 was 341 nM.

With O=C(CC1CC2CCC1C2)Nn1cnc2ccccc2c1=O (racemic) [Example 10, (±)-exo-2-bicyclo[2.2.1]hept-2-yl-N-(4-oxoquinazolin-3(4H)-yl)acetamide] the Emax was 131% and the EC50 was 4950 nM.

For CC(C)c1nc2ccccc2c(=O)n1NC(=O)CC1C2CC3CC(C2)CC1C3 (stereo not shown) [Example 1, 2-(2-adamantyl)-N-(2-isopropyl-4-oxoquinazolin-3(4H)-yl)acetamide], the Emax was 88.8% and the EC50 was 138 nM.

For Cc1sc2nc(C)n(NC(=O)CC34CC5CC(CC(C5)C3)C4)c(=O)c2c1-c1ccccc1 [Example 46, 2-(1-adamantyl)-N-(2,6-dimethyl-4-oxo-5-phenylthieno[2,3-d]pyrimidin-3(4H)-yl)acetamide], the Emax was 130% and the EC50 was 454 nM.

CC(C)c1nc2ccccc2c(=O)n1NC(=O)CC1CC2CCC1C2 (racemic) [Example 42, (±)-2-[(endo)-bicyclo[2.2.1]hept-2-yl]-N-(2-isopropyl-4-oxoquinazolin-3(4H)-yl)acetamide] was tested, and the EC50 was 86.8 nM and the Max response (maximum response relative to response of retigabine at 10 μM set at 100%) was 150%.

In the case of CC(C)c1nc2ccccc2c(=O)n1NC(=O)[C@H]1C[C@@H]2C=C[C@H]1C2 (racemic) [Example 32, (±)-(exo)-N-(2-isopropyl-4-oxoquinazolin-3(4H)-yl)bicyclo[2.2.1]hept-5-ene-2-carboxamide], the Emax is reported as 99.2% and the EC50 is reported as 2230 nM.

For CC(C)c1nc2ccccc2c(=O)n1NC(=O)[C@@H]1C[C@@H]2CC[C@H]1C2 (racemic) [Example 22, (±)-endo-N-(2-isopropyl-4-oxoquinazolin-3(4H)-yl)bicyclo[2.2.1]heptane-2-carboxamide], the Emax was 124% and the EC50 was 404 nM.

With O=C(C[C@H]1C[C@@H]2CC[C@H]1C2)Nn1c(C2CC2)nc2cc(F)ccc2c1=O (racemic) [Example 61, (±)-2-[(exo)-bicyclo[2.2.1]hept-2-yl]-N-(2-cyclopropyl-7-fluoro-4-oxoquinazolin-3(4H)-yl)acetamide] the Emax was 145% and the EC50 was 30.7 nM.

With O=C(CC1CC2CCC1C2)Nn1c(-c2ccccc2)nc2ccccc2c1=O (racemic) [Example 12, (±)-exo-2-bicyclo[2.2.1]hept-2-yl-N-(4-oxo-2-phenylquinazolin-3(4H)-yl)acetamide] the Emax was 176% and the EC50 was 535 nM.

CC(C)c1nc2ccccc2c(=O)n1NC(=O)C[C@@H]1C[C@@H]2CC(=O)C[C@@H](C2)C1 [Example 60] showed an Emax of 58% and an EC50 greater than 31600 nM.

Molecule CC(C)c1nc2ccccc2c(=O)n1NC(=O)CC12CC3CC(CC(Cl)(C3)C1)C2 [Example 21, 2-[3-chloro-1-adamantyl]-N-(2-isopropyl-4-oxoquinazolin-3(4H)-yl)acetamide] has an Emax of 132% and an EC50 of 403 nM.

CC(C)c1nc2cc(-c3ccccc3F)sc2c(=O)n1NC(=O)CC1CC2CCC1C2 (racemic) [Example 41, (±)-2-[(exo)-bicyclo[2.2.1]hept-2-yl]-N-[6-(2-fluorophenyl)-2-isopropyl-4-oxothieno[3,2-d]pyrimidin-3(4H)-yl]acetamide] showed an Emax of 17% and an EC50 greater than 30000 nM.

O=C(Nn1c(-c2ccccc2)nc2ccccc2c1=O)C1C2CC3CC(C2)CC1C3 (stereo not shown) [Example 38, N-(4-oxo-2-phenylquinazolin-3(4H)-yl)adamantane-2-carboxamide] gave an Emax of -43.5% and an EC50 greater than 30000 nM.

For O=C(Nn1c(-c2ccccc2)nc2ccccc2c1=O)C1CC2CCC1C2 (racemic) [Example 23, (±)-endo-N-(4-oxo-2-phenylquinazolin-3(4H)-yl)bicyclo[2.2.1]heptane-2-carboxamide], the Emax was 34.3% and the EC50 was 540 nM.

With Cc1nc2ccccc2c(=O)n1NC(=O)CC12CC3CC(CC(C3)C1)C2 [Example 8, 2-(1-adamantyl)-N-(2-methyl-4-oxoquinazolin-3(4H)-yl)acetamide] the Emax was 108% and the EC50 was 684 nM.

O=C(CC12CC3CC(CC(C3)C1)C2)Nn1cnc2ccc(Br)cc2c1=O [Example 36, 2-(1-adamantyl)-N-(6-bromo-4-oxoquinazolin-3(4H)-yl)acetamide] showed an Emax of 10.8% and an EC50 greater than 30000 nM.

In the case of CCc1cc2c(=O)n(NC(=O)CC34CC5CC(CC(C5)C3)C4)cnc2s1 [Example 20, 2-(1-adamantyl)-N-(6-ethyl-4-oxothieno[2,3-d]pyrimidin-3(4H)-yl)acetamide], the Emax is reported as 139% and the EC50 is reported as 438 nM.

Work on CCc1nc2ccccc2c(=O)n1NC(=O)C12CC3CC(CC(C3)O1)C2 [Example 54, N-(2-ethyl-4-oxoquinazolin-3(4H)-yl)-2-oxatricyclo[3.3.1.1^3,7]decane-1-carboxamide] yielded an Emax of 5.5% and an EC50 greater than 31600 nM.

For O=C(CC12CC3CC(CC(Cl)(C3)C1)C2)Nn1c(C2CC2)nc2cc(F)ccc2c1=O [Example 53], the Emax was 116% and the EC50 was 250 nM.

Molecule CCc1nc2ccccc2c(=O)n1NC(=O)CC1CC2CCC1C2 (racemic) [Example 43, (±)-2-[(endo)-bicyclo[2.2.1]hept-2-yl]-N-(2-ethyl-4-oxoquinazolin-3(4 H)-yl)acetamide] has an Emax of 150% and an EC50 of 386 nM.

Cc1nc2sccc2c(=O)n1NC(=O)CC12CC3CC(CC(C3)C1)C2 [Example 17, 2-(1-adamantyl)-N-(2-methyl-4-oxothieno[2,3-d]pyrimidin-3(4H)-yl)acetamide] was tested, and the Emax was 61.1% and the EC50 was 2500 nM.

CC(C)c1nc2ccccc2c(=O)n1NC(=O)CCC12CC3CC(CC(C3)C1)C2 [Example 13, 3-(1-adamantyl)-N-(2-isopropyl-4-oxoquinazolin-3(4H)-yl)propanamide] showed an Emax of 172% and an EC50 of 399 nM.

With CCc1nc2ccccc2c(=O)n1NC(=O)[C@@H]1[C@H]2[C@@H]3CC[C@@H](C3)[C@@H]12 [Example 58, (exo,exo)-N-(2-ethyl-4-oxoquinazolin-3(4H)-yl)tricyclo[3.2.1.0^2,4]octane-3-carboxamide] the Emax was 11.6% and the EC50 was greater than 31600 nM.

Work on CCc1nc2ccccc2c(=O)n1NC(=O)CC12CC3CC(CC(C3)C1)C2 [Example 9, 2-(1-adamantyl)-N-(2-ethyl-4-oxoquinazolin-3(4H)-yl)acetamide] yielded an Emax of 124% and an EC50 of 115 nM.

For Cc1nc2sc3c(c2c(=O)n1NC(=O)CC12CC4CC(CC(C4)C1)C2)CCCC3 [Example 44, 2-(1-adamantyl)-N-(2-methyl-4-oxo-5,6,7,8-tetrahydro[1]benzothieno[2,3-d]pyrimidin-3(4 H)-yl)acetamide], the Emax was 81.8% and the EC50 was 2010 nM.

Cc1nc2sc3c(c2c(=O)n1NC(=O)CC12CC4CC(CC(C4)C1)C2)CCCCC3 [Example 48, 2-(1-adamantyl)-N-(2-methyl-4-oxo-6,7,8,9-tetrahydro-4H-cyclohepta[4,5]thieno[2,3-d]pyrimidin-3(5H)-yl)acetamide] was tested, and the Emax was 89.8% and the EC50 was 10900 nM.

Reference: patent US8962639B2, “Potassium channel modulators” (AbbVie Inc., priority 2009, dated 2015)
